{"source": "paper PMC7001544", "about": "(JHEP Reports, 2019)", "origin": "cited, not measured here"}
{"smiles": "Cc1c(C)c2c(c(C)c1O)CCC(C)(COc1ccc(CC3SC(=O)NC3=O)cc1)O2", "note": "(centres unmarked) [troglitazone]", "values": [{"measurement": "effect on NTCP oligomerization", "setting": "NTCP", "value": "prevent NTCP oligomerization"}, {"measurement": "effect on internalization and infection of HBV", "setting": "HBV", "value": "interfere with internalization and infection of HBV"}]}
